Measurements reported in PubChem BioAssay (NCI).
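Growth conditions: 96-well plates. Treatment: test compound, 48 hours, 5 concentrations. Analysis: linear interpolation between bracketing concentrations; unreached endpoints set to highest concentration. TGI: concentration producing complete growth inhibition.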

Columns and labels:
Assay in all cases: NCI-60 cell line screen, 48 h
OVCAR-3 ovarian = test system: OVCAR-3 ovarian
NCI-H460 lung = test system: NCI-H460 lung
MDA-MB-231 breast = test system: MDA-MB-231 breast
SK-MEL-2 melanoma = test system: SK-MEL-2 melanoma
BT-549 breast = test system: BT-549 breast
HT29 colon = test system: HT29 colon
PC-3 prostate = test system: PC-3 prostate
ACHN renal = test system: ACHN renal
IGROV1 ovarian = test system: IGROV1 ovarian
DU-145 prostate = test system: DU-145 prostate
MDA-N = test system: MDA-N
CAKI-1 renal = test system: CAKI-1 renal
SF-539 CNS = test system: SF-539 CNS
MDA-MB-435 = test system: MDA-MB-435
NCI-H226 lung = test system: NCI-H226 lung
TK-10 renal = test system: TK-10 renal
HCT-116 colon = test system: HCT-116 colon
KM12 colon = test system: KM12 colon
NCI-H23 lung = test system: NCI-H23 lung
SK-MEL-28 melanoma = test system: SK-MEL-28 melanoma
U251 CNS = test system: U251 CNS
M14 melanoma = test system: M14 melanoma
NCI-H522 lung = test system: NCI-H522 lung
A549 NSCLC = test system: A549 NSCLC
SF-295 CNS = test system: SF-295 CNS
K-562 leukemia = test system: K-562 leukemia
SK-OV-3 ovarian = test system: SK-OV-3 ovarian
SNB-19 CNS = test system: SNB-19 CNS
SK-MEL-5 melanoma = test system: SK-MEL-5 melanoma
COLO 205 colon = test system: COLO 205 colon
LOX IMVI melanoma = test system: LOX IMVI melanoma
HCT-15 colon = test system: HCT-15 colon
UACC-62 melanoma = test system: UACC-62 melanoma
MALME-3M melanoma = test system: MALME-3M melanoma
HL-60(TB) leukemia = test system: HL-60(TB) leukemia
SN12C renal = test system: SN12C renal
RXF 393 renal = test system: RXF 393 renal
T-47D breast = test system: T-47D breast
SW-620 colon = test system: SW-620 colon
OVCAR-8 ovarian = test system: OVCAR-8 ovarian
CCRF-CEM leukemia = test system: CCRF-CEM leukemia
SF-268 CNS = test system: SF-268 CNS
OVCAR-4 ovarian = test system: OVCAR-4 ovarian
NCI/ADR-RES ovarian = test system: NCI/ADR-RES ovarian
HOP-62 NSCLC = test system: HOP-62 NSCLC
MOLT-4 leukemia = test system: MOLT-4 leukemia
SNB-75 CNS = test system: SNB-75 CNS
EKVX NSCLC = test system: EKVX NSCLC
OVCAR-5 ovarian = test system: OVCAR-5 ovarian
UACC-257 melanoma = test system: UACC-257 melanoma
786-0 renal = test system: 786-0 renal

With `COC(=O)C1=C(O)C(C(=O)OC)[C@]2(O)[C@@H](C(=O)OC)[C@H]1[C@H](C)[C@@H](c1ccccc1)[C@@H]2C(=O)OC` (stereo partly specified) the TGI (OVCAR-3 ovarian) was over 100 µM, the TGI (NCI-H460 lung) was over 100 µM and the TGI (MDA-MB-231 breast) was over 100 µM. The TGI (SK-MEL-2 melanoma) was over 100 µM, the TGI (BT-549 breast) was over 100 µM and the TGI (HT29 colon) was over 100 µM. It also gave a TGI (PC-3 prostate) of over 100 µM, a TGI (ACHN renal) of over 100 µM and a TGI (IGROV1 ovarian) of 93.5 µM. It also gave a TGI (DU-145 prostate) of over 100 µM, a TGI (MDA-N) of over 100 µM and a TGI (CAKI-1 renal) of over 100 µM. For the same compound, the TGI (SF-539 CNS) was over 100 µM, the TGI (MDA-MB-435) was over 100 µM and the TGI (NCI-H226 lung) was over 100 µM. The TGI (TK-10 renal) was over 100 µM, the TGI (HCT-116 colon) was over 100 µM and the TGI (KM12 colon) was over 100 µM. For the same compound, the TGI (NCI-H23 lung) was over 100 µM, the TGI (SK-MEL-28 melanoma) was over 100 µM and the TGI (U251 CNS) was over 100 µM. The TGI (M14 melanoma) was over 100 µM, the TGI (NCI-H522 lung) was 47.1 µM and the TGI (A549 NSCLC) was over 100 µM. The TGI (SF-295 CNS) was over 100 µM, the TGI (K-562 leukemia) was over 100 µM and the TGI (SK-OV-3 ovarian) was over 100 µM. The TGI (SNB-19 CNS) was over 100 µM, the TGI (SK-MEL-5 melanoma) was over 100 µM and the TGI (COLO 205 colon) was over 100 µM. The TGI (LOX IMVI melanoma) was over 100 µM, the TGI (HCT-15 colon) was over 100 µM and the TGI (UACC-62 melanoma) was over 100 µM. The TGI (MALME-3M melanoma) was over 100 µM, the TGI (HL-60(TB) leukemia) was 62.3 µM and the TGI (SN12C renal) was over 100 µM. The TGI (RXF 393 renal) was over 100 µM, the TGI (T-47D breast) was over 100 µM and the TGI (SW-620 colon) was over 100 µM. For the same compound, the TGI (OVCAR-8 ovarian) was over 100 µM, the TGI (CCRF-CEM leukemia) was 70.7 µM and the TGI (SF-268 CNS) was over 100 µM. The TGI (OVCAR-4 ovarian) was over 100 µM, the TGI (NCI/ADR-RES ovarian) was over 100 µM and the TGI (HOP-62 NSCLC) was over 100 µM. It also gave a TGI (MOLT-4 leukemia) of over 100 µM, a TGI (SNB-75 CNS) of over 100 µM and a TGI (EKVX NSCLC) of over 100 µM. For the same compound, the TGI (OVCAR-5 ovarian) was over 100 µM, the TGI (UACC-257 melanoma) was over 100 µM and the TGI (786-0 renal) was over 100 µM.
